Measurements reported in publication PMC7892475, “C-Terminal Amination of a Cationic Anti-Inflammatory Peptide Improves Bioavailability and Inhibitory Activity Against LPS-Induced Inflammation” (Frontiers in Immunology, 2021).
Entries after “also recorded” stand apart in the source; their conditions may differ. Ends that are not written are not given here.

Legend:
[1] = Reverse-phase HPLC retention time as measure of peptide hydrophobicity; type: physicochemical; conditions: HPLC on reverse-phase matrix, aqueous solution; used by the paper as measure of hydrophobicity
From the text: The retention time of peptides on a reverse-phase matrix has been reported to be related to peptide hydrophobicity ([34]).

[2] = system: RAW264.7 cells; test: CCK-8 cell viability assay; type: cell-based, mouse; conditions: RAW264.7 macrophages, CCK-8, 0 to 80 μg/ml, 24 h or 72 h, 37°C
Protocol: The viability of peptide-treated RAW264.7 cells was determined using a Cell Counting Kit-8 (CCK-8) Assay Kit (Dojindo) ([35]). RAW264.7 cells were plated in 96-well plates at a density of 3×10^4 cells/ml in 100 μl DMEM overnight. The cell culture medium was then supplemented with fresh medium containing candidate peptides in a series of concentrations, and the plates were incubated for another 24 h or 72 h. Each well was incubated with 10 μl CCK-8 solution for 4 h in the dark. Afterwards, the absorbance at 450 nm was measured using a microplate reader. Cell viability was determined by:
Cell viability (%)=(OD450sample/OD450(control))×100%

[3] = system: LPS-stimulated RAW264.7 cells; test: Anti-inflammatory assay in LPS-stimulated RAW264.7 cells (ELISA of cytokines); type: cell-based, mouse; conditions: 10 μg/ml peptide 30 min before 100 ng/ml LPS, 12 h, 37°C, ELISA of supernatant
Protocol: RAW264.7 cells were treated with or without 10 μg/ml peptides for 30 min before the addition of 100 ng/ml LPS (E. coli, O55:B5, Sigma-Aldrich, Germany) and further incubation for 12 h at 37°C After treatment, the concentrations of TNF-α, IL-6, and IL-1β in the cell supernatants were assessed.
(§1) The levels of tumor necrosis factor (TNF)-α, interleukin (IL)-6, and IL-1β in cell culture supernatants and the levels of TNF-α, IL-6, and IL-1β in the serum of mice were detected using commercial ELISA kits (eBioscience, San Diego, USA) according to the manufacturer’s instructions. The levels of serum alanine amino transferase (ALT) and aspartate amino transferase (AST) were detected using commercial reagent kits (Nanjing Jiancheng Bioengineering Institute, Nanjing, China). The activity of myeloperoxidase (MPO) in the liver of mice was detected using an ELISA kit (Boster, Wuhan, China) according to the manufacturer’s instructions.

[4] = system: LPS-stimulated RAW264.7 cells; test: Time of addition experiment (peptide pretreatment, LPS neutralization, post-treatment) in RAW264.7 cells; type: cell-based, mouse; conditions: ELISA
Protocol: To identify the mechanisms underlying the anti-inflammatory effects, three different types of treatments were performed as follow.
Briefly, 10 μg/ml peptide was added to the cell culture medium and incubated with cells for 1 h at 37°C Afterwards, the RAW 264.7 cells were washed with PBS and cultured with fresh medium containing 100 ng/ml LPS for 12 h at 37°C. After treatment, TNF-α, IL-6, and IL-1β secretion in the cell supernatants was assessed.
The peptides (10 μg/ml) were incubated with 100 ng/ml LPS directly for 1 h at 37°C. RAW 264.7 cells were stimulated with these mixtures for 12 h at 37°C. Afterwards, the TNF-α, IL-6 and IL-1β levels in the cell supernatants were assessed.
Briefly, 100 ng/ml LPS was added to the cell culture medium and incubated with cells for 1 h at 37°C. Afterwards, the RAW 264.7 cells were washed with PBS and cultured with fresh medium containing 10 μg/ml peptides for 12 h at 37°C. Afterwards, the TNF-α, IL-6, and IL-1β levels in the cell supernatants were assessed.
as §1

[5] = LPS neutralization, chromogenic end-point Tachypleus Amebocyte Lysate (TAL) assay; type: binding, E. coli
Protocol: The neutralization of LPS by the peptides was assessed through a quantitative Chromogenic End-point Tachypleus Amebocyte Lysate (CE TAL) assay using a QCL-1000 kit (XIAMEN BIOENDO TECHNOLOGY CO., China). LPS (E. coli, O111:B4, Sigma-Aldrich, USA) at a final concentration of 1.0 U/ml was incubated with various concentrations of the peptides (0 to 64 μg/ml final concentration) at 37°C for 15 min. Afterwards, the mixtures were incubated with TAL assay reagent at 37°C; for 6 min, and the absorbance was measured at 540 nm.

[6] = system: RAW264.7 cells; test: Cellular uptake and localization of FITC-labeled peptides (confocal microscopy, flow cytometry); type: cell-based, mouse; conditions: N-terminus FITC-labeled peptide, 10 μg/ml, 24 h, 37°C, confocal microscopy and flow cytometry (average FITC intensity)
Protocol: RAW264.7 cells were treated with N-terminus FITC-labeled peptides at 10 μg/ml for 24 h at 37°C; in the dark. Then, the RAW264.7 cells were rinsed with PBS three times, fixed with paraformaldehyde and washed with PBS. The cell nuclei were stained with DAPI (diluted 1:500 in PBS) (Sigma, USA) for 5 min, and the cells were washed with PBS. The above cells were spread on a glass slide, fixed and observed with a Leica TCA sp5 confocal microscope (Germany).
RAW264.7 cells were stained with 10 μg/ml N-terminus FITC-labeled peptides at 37°C in the dark for 24 h. Afterwards, the RAW264.7 cells were harvested and rinsed with PBS five times. The average FITC intensity in the cells was measured via flow cytometry.

[7] = system: TLR4/MD-2 complex; test: Surface plasmon resonance binding; conditions: SPR, Biacore X100, PBS with 0.05% Tween 20, 30 μl/min, 1:1 model, 0 to 10 μM
Protocol: SPR assays were performed using a Biacore X100 instrument (GE Healthcare, Pittsburgh, PA, USA). PBS containing 0.05% Tween 20 was used as the running buffer. The running buffer was continuously passed into the reaction chamber at 30 μl/min. Immobilization of CTP-NH2 on the chip surface was performed according to an amino coupling protocol. […] Running buffer was injected into the empty channel as a reference. To regenerate the chip surface at the end of each experiment, 10 mM Gly-HCl buffer (pH 2.5) was injected. ProteOn manager software (version 2.0) was used to analyze the experimental data. The binding curves were processed for the start injection alignment and baseline. A reference-subtracted sensorgram was then fitted to the curves describing a homogeneous 1:1 model. Data from the protein surfaces were grouped together to fit the association kinetic rate constant (Ka) and the dissociation rate constant (Kd). The equilibrium dissociation constant (KD) for the peptide-TLR4/MD-2 interaction was calculated as follows: […]

[8] = molecular target: T1, TLR4/MD-2 complex (Mus musculus, UniProt Q9QUK6); test: SPR
T1 chain 1: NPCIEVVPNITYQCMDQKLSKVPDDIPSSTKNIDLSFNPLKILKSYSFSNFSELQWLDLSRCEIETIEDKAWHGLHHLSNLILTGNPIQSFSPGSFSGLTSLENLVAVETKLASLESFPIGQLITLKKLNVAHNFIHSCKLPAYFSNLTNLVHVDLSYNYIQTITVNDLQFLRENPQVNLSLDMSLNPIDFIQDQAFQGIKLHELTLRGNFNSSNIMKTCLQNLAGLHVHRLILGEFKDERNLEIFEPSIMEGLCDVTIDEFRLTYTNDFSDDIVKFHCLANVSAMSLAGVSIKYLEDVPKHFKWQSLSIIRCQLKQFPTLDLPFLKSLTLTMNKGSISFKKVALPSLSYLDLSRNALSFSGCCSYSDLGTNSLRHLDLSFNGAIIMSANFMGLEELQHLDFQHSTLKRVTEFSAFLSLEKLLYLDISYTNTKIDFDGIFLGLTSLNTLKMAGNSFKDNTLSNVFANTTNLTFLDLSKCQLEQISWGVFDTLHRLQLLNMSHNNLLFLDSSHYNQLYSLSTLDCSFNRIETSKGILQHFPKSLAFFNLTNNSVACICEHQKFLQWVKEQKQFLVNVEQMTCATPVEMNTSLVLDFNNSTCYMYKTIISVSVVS
T1 chain 2: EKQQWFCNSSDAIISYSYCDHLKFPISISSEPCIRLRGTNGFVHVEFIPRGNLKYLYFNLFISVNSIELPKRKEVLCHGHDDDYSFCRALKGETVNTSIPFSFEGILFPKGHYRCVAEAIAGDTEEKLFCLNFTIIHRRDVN

Molecule: RWGRFLRKIRRFRRKDVT [CTP]
- Retention time [1]: 10.94 min
- cytotoxicity (comparison in words) [2]: lower cytotoxicity than the parental peptide (CATH2) but higher cytotoxicity than TP5
- TNF-α, IL-6 and IL-1β secretion levels [3]: enhanced inhibitory activity against LPS-induced inflammation
- TNF-α and IL-6 level, peptide used to pretreat cells or added after LPS induction ([4]; 10 μg/ml peptide 1 h then wash and 100 ng/ml LPS 12 h, or LPS 1 h, wash, then peptide 12 h): scarcely reduced the elevation in the pro-inflammatory cytokines TNF-α; also recorded: barely exerted such effects
- TNF-α and IL-6 release, peptide incubated with LPS ([4]; 10 μg/ml peptide incubated with 100 ng/ml LPS 1 h at 37°C, mixture on cells 12 h): potent inhibition of pro-inflammatory cytokine release
- 50% binding rate value (LPS neutralization) ([5]; LPS 1.0 U/ml with 0 to 64 μg/ml peptide, 37°C 15 min, TAL reagent 6 min, absorbance 540 nm): approximately 45.32 ± 5.19 μg/ml
- LPS neutralization activity ([5]; chromogenic TAL assay, LPS 1.0 U/ml, 0 to 64 μg/ml peptide): inhibited activation of LPS in a dose-dependent manner
- cellular uptake and localization [6]: rarely entered RAW264.7 cells
- Ka (association kinetic rate constant) [7]: 1.34e+07 M⁻¹ s⁻¹

Molecule: RWGRFLRKIRRFRRKDVT [CTP (CATH2(1-13)-TP5 hybrid peptide)]
- Kd [8]: 1400 nM

Molecule: RWGRFLRKIRRFRRKDVT-NH2 [CTP-NH2 (CATH2(1-13)-TP5 hybrid peptide, C-terminal amide)]
- Kd [8]: 947 nM
